Test results taken from patent US20240218342A1, “SITE-SPECIFIC GLYCAN REMODELING OF LYSOSOMAL ENZYMES AND APPLICATIONS THEREOF” (priority 2021, published 2024).
“Also recorded” adds a separate entry of the source.

Key:
CI-MPR = CI-MPR (Homo sapiens, UniProt P11717); details: previous studies; read-out: apparent KD; cited from earlier work
[1] = system: GAA-deficient multinucleated myotubes (KO); experiment: Cell-associated GAA activity in treated GAA KO myotubes; type: cell-based, mouse; details: 5 μM for 24 hours, compared to untreated cells
Description: (§1) Muscle cell culture, treatment, processing, and analysis. The biological effect of the Endo-A (69) and Endo-F3 (70) remodeled rhGAA was investigated in an in vitro model of Pompe disease.^[11, 12] The myoblasts are grown on Matrigel (Corning; 354234)-coated 6-well plates at 33° C. in an atmosphere of 5% CO2 in proliferation medium [20% fetal bovine serum, 10% horse serum, 1% chick embryo extract, recombinant IFN-γ (100 U/mL; Life Technologies), 1× penicillin/streptomycin/L-glutamine in high-glucose (4.5 g/L) DMEM]. When the cells reach 70-80% confluency (3-4 days), the medium is switched to differentiation medium [DMEM containing 2% horse serum, 0.5% chick embryo extract, recombinant human insulin (10 μg/mL, Life Technologies, 12585-014), 1× penicillin/streptomycin/L-glutamine], and the cells are moved to 37° C. in an atmosphere of 5% CO2. Myotubes begin to form within 3-4 days; they can survive for ˜ 8-10 days in culture until they start twitching and detach from the surface. […]
Measurement of cell-associated GAA activity. The GAA activity in the cells was measured by using 4-methylumbelliferyl-α-D-glucopyranoside (4-MU-α-glucopyranoside; Sigma-Aldrich #M9766) as the fluorogenic GAA substrate as described.^[13] […] Fluorescence was measured on a multi-label plate reader (TECAN, SPARK 10M) at 360 nm excitation/465 nm emission.

[2] = system: GAA-deficient multinucleated myotubes (KO); experiment: Western blotting of treated GAA KO myotube lysates; type: cell-based, mouse; details: 5 μM for 24 hours
Description: as §1
Western blotting. […] Protein concentrations of the supernatants were measured using the Bio-Rad Protein Assay (Bio-Rad Laboratories, Inc.), and equal amounts of protein were run on SDS-PAGE gels (Invitrogen, Carlsbad, CA). […]

[3] = system: GAA-deficient multinucleated myotubes (KO); experiment: LAMP1 immunofluorescence (lysosomal swelling) in GAA KO myotubes; type: cell-based, mouse; details: 5 μM for 24 hours, confocal images
Description: Muscle cell culture, treatment, processing, and analysis. The biological effect of the Endo-A (69) and Endo-F3 (70) remodeled rhGAA was investigated in an in vitro model of Pompe disease.^[11, 12] The myoblasts are grown on Matrigel (Corning; 354234)-coated 6-well plates at 33° C. in an atmosphere of 5% CO2 in proliferation medium [20% fetal bovine serum, 10% horse serum, 1% chick embryo extract, recombinant IFN-γ (100 U/mL; Life Technologies), 1× penicillin/streptomycin/L-glutamine in high-glucose (4.5 g/L) DMEM]. When the cells reach 70-80% confluency (3-4 days), the medium is switched to differentiation medium [DMEM containing 2% horse serum, 0.5% chick embryo extract, recombinant human insulin (10 μg/mL, Life Technologies, 12585-014), 1× penicillin/streptomycin/L-glutamine], and the cells are moved to 37° C. in an atmosphere of 5% CO2. Myotubes begin to form within 3-4 days; they can survive for ˜ 8-10 days in culture until they start twitching and detach from the surface.
The commercial rhGAA, Endo-A- or Endo-F3 remodeled rhGAA were added to the myotubes (on day 8 in differentiation medium) at a concentration of 5 μM for 24 hours; n=5 independent experiments for each condition. Wild type (WT) immortalized myotubes and untreated KO myotubes were used for comparison. The cells were homogenized on ice in deionized H2O, sonicated, and centrifuged at 18,000×g at 4° ° C. for 15 min. […]

Chain of CI-MPR (P11717 41-2491, species assumed): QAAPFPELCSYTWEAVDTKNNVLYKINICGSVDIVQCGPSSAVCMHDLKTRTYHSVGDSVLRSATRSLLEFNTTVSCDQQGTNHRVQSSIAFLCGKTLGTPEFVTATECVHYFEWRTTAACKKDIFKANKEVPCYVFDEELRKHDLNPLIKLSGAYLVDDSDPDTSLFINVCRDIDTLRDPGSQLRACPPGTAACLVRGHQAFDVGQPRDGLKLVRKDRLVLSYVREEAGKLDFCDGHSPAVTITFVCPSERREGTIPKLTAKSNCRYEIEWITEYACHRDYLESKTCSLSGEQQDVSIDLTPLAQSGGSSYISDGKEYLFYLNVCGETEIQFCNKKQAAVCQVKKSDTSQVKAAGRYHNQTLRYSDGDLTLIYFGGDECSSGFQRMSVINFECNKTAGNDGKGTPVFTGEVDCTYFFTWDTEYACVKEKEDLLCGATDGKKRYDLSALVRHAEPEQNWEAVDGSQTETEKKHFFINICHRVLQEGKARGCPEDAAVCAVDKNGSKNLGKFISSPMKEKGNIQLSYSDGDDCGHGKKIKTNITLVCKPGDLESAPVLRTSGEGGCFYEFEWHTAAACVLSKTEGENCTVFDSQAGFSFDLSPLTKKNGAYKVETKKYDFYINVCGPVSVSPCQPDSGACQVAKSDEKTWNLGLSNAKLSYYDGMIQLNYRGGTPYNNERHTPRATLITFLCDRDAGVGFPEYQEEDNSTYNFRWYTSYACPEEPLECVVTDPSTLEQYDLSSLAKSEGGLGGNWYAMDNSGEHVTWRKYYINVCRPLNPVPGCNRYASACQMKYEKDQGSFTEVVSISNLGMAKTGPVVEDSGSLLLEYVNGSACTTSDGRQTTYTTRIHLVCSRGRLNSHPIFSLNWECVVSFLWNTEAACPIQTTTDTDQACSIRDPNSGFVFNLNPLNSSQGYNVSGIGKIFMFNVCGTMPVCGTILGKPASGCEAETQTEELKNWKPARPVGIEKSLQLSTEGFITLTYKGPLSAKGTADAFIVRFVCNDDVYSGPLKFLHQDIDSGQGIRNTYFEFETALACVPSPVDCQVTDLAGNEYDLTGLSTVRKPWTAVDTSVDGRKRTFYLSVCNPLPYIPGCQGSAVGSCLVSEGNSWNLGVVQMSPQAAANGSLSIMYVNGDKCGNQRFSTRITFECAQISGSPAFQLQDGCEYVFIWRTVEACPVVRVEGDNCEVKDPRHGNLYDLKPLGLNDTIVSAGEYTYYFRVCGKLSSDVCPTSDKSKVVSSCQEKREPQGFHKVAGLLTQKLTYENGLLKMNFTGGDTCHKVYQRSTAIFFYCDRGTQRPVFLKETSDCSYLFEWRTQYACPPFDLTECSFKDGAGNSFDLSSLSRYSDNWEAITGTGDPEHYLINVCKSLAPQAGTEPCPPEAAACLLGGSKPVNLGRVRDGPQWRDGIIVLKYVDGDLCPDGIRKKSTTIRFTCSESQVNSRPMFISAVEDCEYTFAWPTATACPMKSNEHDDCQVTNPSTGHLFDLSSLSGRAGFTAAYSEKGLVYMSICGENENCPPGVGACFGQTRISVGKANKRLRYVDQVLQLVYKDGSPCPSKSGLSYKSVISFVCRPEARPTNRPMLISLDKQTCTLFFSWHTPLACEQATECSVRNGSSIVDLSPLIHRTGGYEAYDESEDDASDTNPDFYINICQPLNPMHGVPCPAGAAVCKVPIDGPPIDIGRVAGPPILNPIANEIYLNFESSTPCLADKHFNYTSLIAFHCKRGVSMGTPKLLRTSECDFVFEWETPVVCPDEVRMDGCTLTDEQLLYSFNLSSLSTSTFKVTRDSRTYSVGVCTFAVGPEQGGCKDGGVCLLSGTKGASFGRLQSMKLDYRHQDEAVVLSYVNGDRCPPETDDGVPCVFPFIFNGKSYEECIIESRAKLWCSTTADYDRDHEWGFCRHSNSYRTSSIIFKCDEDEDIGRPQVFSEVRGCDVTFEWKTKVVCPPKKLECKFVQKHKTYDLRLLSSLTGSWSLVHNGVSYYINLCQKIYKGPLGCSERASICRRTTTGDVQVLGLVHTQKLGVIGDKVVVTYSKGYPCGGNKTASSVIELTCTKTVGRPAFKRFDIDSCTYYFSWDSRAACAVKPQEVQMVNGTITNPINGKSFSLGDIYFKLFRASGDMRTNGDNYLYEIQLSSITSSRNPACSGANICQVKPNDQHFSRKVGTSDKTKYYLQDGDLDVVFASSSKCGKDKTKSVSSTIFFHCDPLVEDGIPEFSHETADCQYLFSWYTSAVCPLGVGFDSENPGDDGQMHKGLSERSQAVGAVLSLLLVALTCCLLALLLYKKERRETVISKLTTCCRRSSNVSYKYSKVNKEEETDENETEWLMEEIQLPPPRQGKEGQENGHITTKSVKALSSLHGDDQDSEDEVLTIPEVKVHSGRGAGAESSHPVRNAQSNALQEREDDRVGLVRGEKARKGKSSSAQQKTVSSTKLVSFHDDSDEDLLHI

Substance | Kd (CI-MPR) | GAA activity in cell lysates (cellular uptake) [1] | levels of endosomal (Rab5) and lysosomal (LAMP1) markers ([2]; Western blot) | processed, mature lysosomal form of rhGAA (76 kDa) in cells ([2]; Western blot with anti-human GAA antibodies) | enlarged LAMP1-positive lysosomes [3]
ATB200: novel rhGAA carrying a higher M6P content that binds the CI-MPR with high affinity (previous studies) | 2 to 4 nM | – | – | – | –
Lumizyme: recombinant human acid α-glucosidase (alglucosidase alfa, Genzyme), therapeutic lysosomal enzyme for Pompe disease | – | only a slight increase (statistically insignificant) | remained the same as in the untreated GAA-deficient cells | barely detectable | Enlarged lysosomes were seen; also recorded: can be detected; also recorded: contain enlarged LAMP1-positive lysosomes
